Laboratory results as given in publication PMC11465619 (ACS Omega, 2024).

Legend:
[1] = target: T1, electric eel acetylcholinesterase (AChE, Type–VI-S, EC 3.1.1.7) (Electrophorus electricus, UniProt O42275); assay: biochemical; conditions: for IC50: mean ± SEM of three parallel measurements
T1 construct: purchased Type–VI-S
Description: (§1) The electric eel acetylcholinesterase (AChE, Type–VI-S, EC 3.1.1.7, 425.84 U/mg) and horse reddish butyrylcholinesterase (BChE, EC 3.1.1.8, 11.4 U/mg) were used to determine the anticholinesterase activity. […] After incubation for 15 min at 25 °C, 20 μL 0.5 mM DTNB (5,50-dithiobis(2-nitrobenzoic acid)) and 20 μL acetylthiocholine iodide (0.71 mM) or butyryl-thiocholine chloride (0.2 mM) were added. Then, the absorbance was measured at 412 nm.
(§2) Lineweaver–Burk plots were drawn from the data obtained as a result of the experimental study.[24]

[2] = target: horse reddish butyrylcholinesterase (BChE, EC 3.1.1.8) (Equus caballus, UniProt P81908); assay: biochemical; conditions: for IC50: mean ± SEM of three parallel measurements
horse reddish butyrylcholinesterase (BChE, EC 3.1.1.8), sequence (P81908 whole entry): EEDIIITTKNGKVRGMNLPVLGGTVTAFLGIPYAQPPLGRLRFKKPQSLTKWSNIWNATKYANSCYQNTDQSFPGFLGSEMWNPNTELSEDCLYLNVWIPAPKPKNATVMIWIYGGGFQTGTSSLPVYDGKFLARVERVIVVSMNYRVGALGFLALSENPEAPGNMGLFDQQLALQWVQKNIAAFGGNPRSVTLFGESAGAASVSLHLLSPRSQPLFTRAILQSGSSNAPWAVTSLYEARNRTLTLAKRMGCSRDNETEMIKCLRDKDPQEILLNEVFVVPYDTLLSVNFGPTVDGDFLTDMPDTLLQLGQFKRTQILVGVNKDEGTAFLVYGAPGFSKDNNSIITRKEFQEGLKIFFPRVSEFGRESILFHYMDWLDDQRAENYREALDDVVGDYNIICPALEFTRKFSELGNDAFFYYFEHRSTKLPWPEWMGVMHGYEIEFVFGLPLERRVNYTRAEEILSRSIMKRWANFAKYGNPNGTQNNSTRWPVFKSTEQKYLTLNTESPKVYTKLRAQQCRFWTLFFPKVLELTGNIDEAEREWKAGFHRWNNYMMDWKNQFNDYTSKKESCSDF
Description: as §1, §2

T1 sequence (O42275 24-633): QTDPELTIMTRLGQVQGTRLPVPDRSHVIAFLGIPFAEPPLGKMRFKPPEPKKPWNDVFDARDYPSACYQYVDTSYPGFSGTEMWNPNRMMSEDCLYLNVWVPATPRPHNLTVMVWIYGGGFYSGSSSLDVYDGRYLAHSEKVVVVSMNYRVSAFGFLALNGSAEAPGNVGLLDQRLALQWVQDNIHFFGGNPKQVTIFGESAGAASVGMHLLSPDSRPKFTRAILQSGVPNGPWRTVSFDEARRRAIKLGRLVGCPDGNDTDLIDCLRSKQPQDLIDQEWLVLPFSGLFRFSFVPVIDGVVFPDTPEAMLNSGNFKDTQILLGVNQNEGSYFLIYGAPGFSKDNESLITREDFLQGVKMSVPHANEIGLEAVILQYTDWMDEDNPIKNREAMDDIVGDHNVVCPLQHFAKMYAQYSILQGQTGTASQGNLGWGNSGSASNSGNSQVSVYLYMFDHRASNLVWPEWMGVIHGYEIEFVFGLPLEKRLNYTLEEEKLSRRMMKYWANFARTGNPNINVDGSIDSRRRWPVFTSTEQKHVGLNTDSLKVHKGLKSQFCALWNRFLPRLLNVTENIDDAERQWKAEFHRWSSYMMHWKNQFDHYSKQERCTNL

Row | Structure (SMILES) | IC50 [1] [µM] | IC50 [2] [µM] | type of inhibition of AChE (Lineweaver–Burk plots) [1] | AChE inhibitory activity relative to the standard galantamine ([1]; compared with galantamine) | Ki ([1]; competitive inhibition, read-out: inhibition constant for AChE (Lineweaver–Burk plots)) [µM] | type of inhibition of BChE (Lineweaver–Burk plots) [2] | Ki ([2]; competitive inhibition, read-out: inhibition constant for BChE (Lineweaver–Burk plots)) [µM]
1 | O=S(=O)(N/N=C/c1ccccc1O)c1ccc(F)cc1 [Compound 1, (E)-4-Fluoro-N′-(2-hydroxybenzylidene)benzenesulfonohydrazide] | 117.5 ± 0.38 | 124.4 ± 0.28 |  |  |  |  | 
2 | O=S(=O)(N/N=C/c1ccccc1O)c1ccc(OC(F)(F)F)cc1 [Compound 7, (E)-N′-(2-Hydroxybenzylidene)-4-(trifluoromethoxy)benzenesulfonohydrazide] | 29.1 ± 0.94 | 40.3 ± 0.66 | competitively | seven times lower | 28.2 ± 2.51 | competitively | 41.7 ± 3.18
3 | O=S(=O)(N/N=C/c1ccccc1O)c1cccc(C(F)(F)F)c1 [Compound 3, (E)-N′-(2-Hydroxybenzylidene)-3-(trifluoromethyl)benzenesulfonohydrazide] | 104.2 ± 0.56 | 119.8 ± 0.17 |  |  |  |  | 
4 | O=S(=O)(N/N=C/c1ccccc1O)c1ccccc1OC(F)(F)F [Compound 5, (E)-N′-(2-Hydroxybenzylidene)-2-(trifluoromethoxy)benzenesulfonohydrazide] | 53.1 ± 0.58 | 69 ± 1.06 |  |  |  |  | 
5 | O=S(=O)(N/N=C/c1ccccc1O)c1ccc(C(F)(F)F)cc1 [Compound 4, (E)-N′-(2-Hydroxybenzylidene)-4-(trifluoromethyl)benzenesulfonohydrazide] | 68.67 ± 0.43 | 75.34 ± 0.18 |  |  |  |  | 
6 | O=S(=O)(N/N=C/c1ccccc1O)c1ccccc1C(F)(F)F [Compound 2, (E)-N′-(2-Hydroxybenzylidene)-2-(trifluoromethyl)benzenesulfonohydrazide] | 91.77 ± 0.33 | 100.1 ± 0.12 |  |  |  |  | 
7 | O=S(=O)(N/N=C/c1ccccc1O)c1cccc(OC(F)(F)F)c1 [Compound 6, (E)-N′-(2-Hydroxybenzylidene)-3-(trifluoromethoxy)benzenesulfonohydrazide] | 80.3 ± 0.91 | 86.4 ± 0.14 |  |  |  |  | 
